Measured values: patent US9278915B2, “Agonists of GPR40” (CONNEXIOS LIFE SCIENCES PVT LTD, priority 2010, dated 2016)
pEC50: −log10 of the molar value.

target: T1, hGPR40 (Homo sapiens, UniProt O14842); experiment: Calcium flux assay to detect GPR40 activation; format: cell-based; conditions: CHO-K cells stably expressing hGPR40; Fluo-4 NW; read for 4 min at 5 s intervals
T1 construct: expressed in transfected cells
Description: Biological Activity Calium Flux Assay to Detect GPR40 Activation: CHO-K cells stably expressing hGPR40 were selected in a media containing Neomycin/G418. The cells were plated at a concentration of 20,000 cells per well in black 96-well clear bottom tissue culture treated plates. The cells were cultured for 24 h at 37° C. in a humidified 5% CO2 air environment to allow for protein expression. The next day, after removal of media from wells, Fluo-4 NW (Invitrogen) is added at 100 ul/well and the cells were incubated for 30 min at 37° C. and for a further 30 min at RT. All test compounds were diluted to appropriate concentrations in HEPES buffer. Compounds were added to the cells and the wells were read in the BioTEK synergy reader and readings were taken for 4 min with an interval of 5 s.

T1 sequence (O14842 whole entry): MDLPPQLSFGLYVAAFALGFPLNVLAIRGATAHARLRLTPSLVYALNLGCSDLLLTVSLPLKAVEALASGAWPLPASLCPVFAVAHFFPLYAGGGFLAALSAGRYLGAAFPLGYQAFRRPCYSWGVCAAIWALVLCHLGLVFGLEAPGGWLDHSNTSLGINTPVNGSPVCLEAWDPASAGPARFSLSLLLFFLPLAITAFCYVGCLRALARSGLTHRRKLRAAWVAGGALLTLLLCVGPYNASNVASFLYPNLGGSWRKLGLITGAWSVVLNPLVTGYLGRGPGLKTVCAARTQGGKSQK

| Structure (SMILES) | pEC50 |
| --- | --- |
| CC(C)O/N=C(/c1ccccc1)c1cccc(CNc2ccc(CCC(=O)O)cc2)c1 [Compound 10, 3-{4-[(3-{(E,Z)-Phenyl[(propan-2-yloxy)imino]methyl}benzyl)amino]phenyl}propanoic acid] | < 7.00 |
| CN(C)CCO/N=C(/c1ccccc1)c1cccc(COc2ccc(CCC(=O)O)cc2)c1 [Compound 11, 3-[4-({3-[(E,Z)-{[2-(Dimethylamino)ethoxy]imino}(phenyl)methyl]benzyl}oxy)phenyl]propanoic acid] | < 7.00 |
| CO/N=C(/c1ccccc1)c1cccc(COc2ccc(C(C#N)CC(=O)O)cc2)c1 (centres unmarked) [Compound 12, 3-Cyano-3-[4-({3-[(E,Z)-(methoxyimino)(phenyl)methyl]benzyl}oxy)phenyl]propanoic acid] | < 7.00 |
| CO/N=C(\c1ccccc1)c1cccc(COc2ccc(CC(=O)O)cc2)c1 [Compound 19, [4-({3-[(E,Z)-(Methoxyimino)(phenyl)methyl]benzyl}oxy)phenyl]acetic acid] | < 7.00 |
| CO/N=C(\COc1ccc(COc2ccc(CCC(=O)O)cc2)cn1)c1ccccc1 [Compound 20, 3-{4-[(6-{[(2Z)-2-(Methoxyimino)-2-phenylethyl]oxy}pyridin-3-yl)methoxy]phenyl}propanoic acid] | < 7.00 |
| CO/N=C(/COc1ccc(COc2ccc(COCC(=O)O)cc2)cc1)c1ccccc1 [Compound 30, ({4-[(4-{[(2E,2Z)-2-(Methoxyimino)-2-phenylethyl]oxy}benzyl)oxy]benzyl}oxy)acetic acid] | < 7.00 |
| CO/N=C(/COc1ccc(COc2ccc(-c3c(C(=O)O)noc3C)cc2)cc1)c1ccccc1 [Compound 32, 4-{4-[(4-{[(2E,2Z)-2-(Methoxyimino)-2-phenylethyl]oxy}benzyl)oxy]phenyl}-5-methyl-1,2-oxazole-3-carboxylic acid] | < 7.00 |
| CO/N=C(\COc1ccc(COc2ccc(CCC(=O)O)c(OC)c2)cc1)c1ccccc1 [Compound 37, 3-{2-Methoxy-4-[(4-{[(2Z)-2-(methoxyimino)-2-phenylethyl]oxy}benzyl)oxy]phenyl}propanoic acid] | < 7.00 |
| CO/N=C(\COc1ccc(COc2ccc(CCC(=O)O)c(C)c2)cc1)c1ccccc1 [Compound 38] | < 7.00 |
| CO/N=C(\COc1ccc(COc2ccc(CCC(=O)O)c(C#N)c2)cc1)c1ccccc1 [Compound 42, 3-{2-Cyano-4-[(4-{[(2E,2Z)-2-(methoxyimino)-2-phenylethyl]oxy}benzyl)oxy]phenyl}propanoic acid] | < 7.00 |
| CO/N=C(\COc1ccc(COc2ccc(CCC(=O)O)c(OC)c2)cc1)c1ccc(C#N)cc1 [Compound 43, 3-{4-[(4-{[(2Z)-2-(4-Cyanophenyl)-2-(methoxyimino)ethyl]oxy}benzyl)oxy]-2-methoxyphenyl}propanoic acid] | < 7.00 |
| CO/N=C(\COc1ccc(COc2ccc(CCC(=O)O)c(CC#N)c2)cc1)c1ccccc1 [Compound 44, 3-{2-(Cyanomethyl)-4-[(4-{[(2Z)-2-(methoxyimino)-2-phenylethyl]oxy}benzyl)oxy]phenyl}propanoic acid] | < 7.00 |
| CO/N=C(\COc1ccc(COc2ccc(C3CC3C(=O)O)cc2)cc1)c1ccc(C#N)cc1 (centres unmarked) [Compound 45, 2-{4-[(4-{[(2Z)-2-(4-Cyanophenyl)-2-(methoxyimino)ethyl]oxy}benzyl)oxy]phenyl}cyclopropanecarboxylic acid] | 7.00 to 8.00 |
| CO/N=C(\COc1ccc(COc2ccc(C3CC3C(=O)O)cc2)cc1)c1ccc(OC)cc1 (centres unmarked) [Compound 46, 2-{4-[(4-{[(2Z)-2-(Methoxyimino)-2-(4-methoxyphenyl)ethyl]oxy}benzyl)oxy]phenyl}cyclopropanecarboxylic acid] | 7.00 to 8.00 |
| CO/N=C(/COc1ccc(COc2ccc(C(C#N)CC(=O)O)cc2)cc1)c1ccccc1 (centres unmarked) [Compound 53, Sodium 3-cyano-3-{4-[(4-{[(2E)-2-(methoxyimino)-2-phenylethyl]oxy}benzyl)oxy]phenyl}propanoate] | 7.00 to 8.00 |
| CO/N=C(\COc1ccc(COc2ccc(C(C#N)CC(=O)O)cc2)cc1)c1ccc(F)cc1 (centres unmarked) [Compound 54, Sodium 3-cyano-3-{4-[(4-{[(2Z)-2-(4-fluorophenyl)-2-(methoxyimino)ethyl]oxy}benzyl)oxy]phenyl}propanoate] | 7.00 to 8.00 |
| CO/N=C(\COc1ccc(COc2ccc(C3CC3C(=O)O)cc2)cc1)c1ccc(OC)cc1 (centres unmarked) [Compound 57, Sodium 2-{4-[(4-{[(2Z)-2-(methoxyimino)-2-(4-methoxyphenyl)ethyl]oxy}benzyl)oxy]phenyl}cyclopropanecarboxylate] | 7.00 to 8.00 |
| CO/N=C(\COc1ccc(COc2ccc(CCC(=O)O)c(OCC3CC3)c2)cc1)c1ccccc1 [Compound 58, 3-{2-(Cyclopropylmethoxy)-4-[(4-{[(2Z)-2-(methoxyimino)-2-phenylethyl]oxy}benzyl)oxy]phenyl}propanoic acid] | < 7.00 |
| CO/N=C(\COc1ccc(COc2ccc(C(C)(C#N)CC(=O)O)cc2)cc1)c1ccccc1 (centres unmarked) [Compound 59, 3-Cyano-3-{4-[(4-{[(2Z)-2-(methoxyimino)-2-phenylethyl]oxy}benzyl)oxy]phenyl}butanoic acid] | < 7.00 |

Continued, values first:

| pEC50 | Structure (SMILES) |
| --- | --- |
| 7.00 to 8.00 | CO/N=C(\COc1ccc(CNc2ccc([C@@H]3C[C@H]3C(=O)O)cc2)cc1)c1ccccc1C [Compound 15, (1R,2R)-2-{4-[(4-{[(2Z)-2-(Methoxyimino)-2-(2-methylphenyl)ethyl]oxy}benzyl)amino]phenyl}cyclopropanecarboxylic acid] |
| 7.00 to 8.00 | CO/N=C(\COc1ccc(COc2ccc(C(C#N)CC(=O)O)cc2)cc1)c1ccccc1 (centres unmarked) [Compound 16, 3-Cyano-3-{4-[(4-{[(2Z)-2-(methoxyimino)-2-phenylethyl]oxy}benzyl)oxy]phenyl}propanoic acid] |
| 7.00 to 8.00 | CO/N=C(\COc1ccc(COc2ccc(C(CC(=O)O)c3ccon3)cc2)cc1)c1ccccc1 (centres unmarked) [Compound 17, 3-{4-[(4-{[(2Z)-2-(methoxyimino)-2-phenylethyl]oxy}benzyl)oxy]phenyl}-3-(1,2-oxazol-3-yl)propanoic acid] |
| > 8.00 | CO/N=C(\COc1ccc(COc2ccc(C(C#N)CC(=O)O)cc2)cc1)c1ccccc1 (centres unmarked) [Compound 18, Sodium 3-cyano-3-{4-[(4-{[(2Z)-2-(methoxyimino)-2-phenylethyl]oxy}benzyl)oxy]phenyl}propanoate] |
| 7.00 to 8.00 | CO/N=C(\COc1ccc(COc2ccc(C(C#N)CC(=O)O)cc2)cc1OC)c1ccccc1 (centres unmarked) [Compound 26, 3-Cyano-3-{4-[(3-methoxy-4-{[(2Z)-2-(methoxyimino)-2-phenylethyl]oxy}benzyl)oxy]phenyl}propanoic acid] |
| > 8.00 | CO/N=C(\COc1ccc(COc2ccc(C(CC(=O)O)c3ccon3)cc2)cc1)c1ccccc1 (centres unmarked) [Compound 29, Sodium 3-{4-[(4-{[(2Z)-2-(methoxyimino)-2-phenylethyl]oxy}benzyl)oxy]phenyl}-3-(1,2-oxazol-3-yl)propanoate] |
| > 8.00 | CO/N=C(\COc1ccc(COc2ccc(C(C#N)CC(=O)O)cc2)cc1)c1ccccc1 (centres unmarked) [Compound 31, Potassium 3-cyano-3-{4-[(4-{[(2Z)-2-(methoxyimino)-2-phenylethyl]oxy}benzyl)oxy]phenyl}propanoate] |
| > 8.00 | CO/N=C(\COc1ccc(COc2ccc(C(C#N)CC(=O)O)cc2)cc1)c1ccc(F)cc1 (centres unmarked) [Compound 34, 3-Cyano-3-{4-[(4-{[(2Z)-2-(4-fluorophenyl)-2-(methoxyimino)ethyl]oxy}benzyl)oxy]phenyl}propanoic acid] |
| 7.00 to 8.00 | CO/N=C(\COc1ccc(COc2ccc(C(C#N)CC(=O)O)cc2)cc1)c1cccc(F)c1 (centres unmarked) [Compound 35, 3-Cyano-3-{4-[(4-{[(2Z)-2-(3-fluorophenyl)-2-(methoxyimino)ethyl]oxy}benzyl)oxy]phenyl}propanoic acid] |
| > 8.00 | CO/N=C(\COc1ccc(COc2ccc(CCC(=O)O)c(F)c2)cc1)c1ccccc1 [Compound 36, 3-{2-Fluoro-4-[(4-{[(2Z)-2-(methoxyimino)-2-phenylethyl]oxy}benzyl)oxy]phenyl}propanoic acid] |
| > 8.00 | CO/N=C(\COc1ccc(COc2ccc(CCC(=O)O)c(F)c2)cc1)c1ccc(C#N)cc1 [Compound 39] |
| > 8.00 | CO/N=C(\COc1ccc(COc2ccc(CCC(=O)O)c(F)c2)cc1)c1ccc(OC)cc1 [Compound 40, 3-{2-Fluoro-4-[(4-{[(2Z)-2-(methoxyimino)-2-(4-methoxyphenyl)ethyl]oxy}benzyl)oxy]phenyl}propanoic acid] |
| 7.00 to 8.00 | CO/N=C(\COc1ccc(COc2ccc(CCC(=O)O)c(F)c2)cc1OC)c1ccccc1 [Compound 41, 3-{2-Fluoro-4-[(3-methoxy-4-{[(2E,2Z)-2-(methoxyimino)-2-phenylethyl]oxy}benzyl)oxy]phenyl}propanoic acid] |
| > 8.00 | CO/N=C(\COc1ccc(COc2ccc(C(C#N)CC(=O)O)cc2)cc1F)c1ccccc1 (centres unmarked) [Compound 50, Sodium 3-cyano-3-{4-[(3-fluoro-4-{[(2Z)-2-(methoxyimino)-2-phenylethyl]oxy}benzyl)oxy]phenyl}propanoate] |
| > 8.00 | CO/N=C(\COc1ccc(COc2ccc(C3CC3C(=O)O)cc2)cc1)c1ccc(C#N)cc1 (centres unmarked) [Compound 51, Sodium 2-{4-[(4-{[(2Z)-2-(4-cyanophenyl)-2-(methoxyimino)ethyl]oxy}benzyl)oxy]phenyl}cyclopropanecarboxylate] |
| > 8.00 | CO/N=C(\COc1ccc(COc2ccc(C(C#N)CC(=O)O)cc2)cc1)c1cccc(F)c1 (centres unmarked) [Compound 55, Sodium 3-cyano-3-{4-[(4-{[(2Z)-2-(3-fluorophenyl)-2-(methoxyimino)ethyl]oxy}benzyl)oxy]phenyl}propanoate] |
